Test results published in EP0453621A1, “Polymer-modified drugs having enhanced biological and pharmacological activities” (W.R. Grace & Co.-Conn., priority 1990, dated 1991).
pIC50: −log10 of the molar value. Ends that are not written are not given here. Peptide text beside a SMILES is read from it.

Columns and labels:
[1] = Circulatory half-life of radioiodinated peptide or conjugate after tail vein injection; type: in vivo, C57B1/6 mice; settings: i.v. tail vein
Experimental: The conjugate from Example XIII was passed over a disposable Sephadex G25 column (PD10 from Pharmacia, Inc.) to separate free from polymer-bound peptide. Confirmation of the purity of the conjugate was obtained by HPLC. About 45 µg of conjugate (based on peptide) were radiolabeled with 125-iodine using the well known chloramine-T procedure. Free 125-iodine was separated from radiolabeled conjugate using a PD10 column. Of the original 30 µCi of Na¹²⁵I used for the iodination, more than 23 µCi were incorporated into the conjugate.
Portions of the radiolabeled YRGDS-Prepolymer A conjugate from Example XIV were injected into the tail veins of C57B1/6 mice. As a control, YRGDS free peptide was radioiodinated by the procedure described in Example XIV and also injected. At various times blood was withdrawn from the animals and the amount of radioiodine remaining in the circulation determined using a gamma counter. A biphasic clearance curve (α:β) was obtained for both species. […] Thus by coupling the peptide to this polymer its clearance rate from the circulation is markedly extended.

B16 cell = assay: Inhibition of B16 cell spreading on a plate coated with fibronectin; settings: the conjugate value is based on octapeptide, read-out: concentration for 50% inhibition of cell spreading
Experimental: The biological activity of the conjugate formed in Example XV was determined in an assay which measures inhibition of B16 cell spreading on a plate coated with fibronectin.

N=C(N)NCCC[C@H](NC(=O)[C@@H](N)Cc1ccc(O)cc1)C(=O)NCC(=O)N[C@@H](CC(=O)O)C(=O)N[C@@H](CO)C(=O)O [YRGDS, tyr-arg-gly-asp-ser] (H-YRGDS-OH)
t½α ([1]; first phase of biphasic clearance): 30 s
label cleared in initial phase ([1]; in one minute, 125-iodine label): about 75%

GRGDSPAC-Prepolymer A conjugate: peptide gly-arg-gly-asp-ser-pro-ala-cys (SEQ. ID No. 3) conjugated with Prepolymer A (also: conjugated with Prepolymer A, site not given here)
pIC50 (B16 cell): 3.47
